Results as given in US5317018A, “Benzodiazepines and compositions for treating anxiety and panic disorders, and idiopathic and psychomotor epilepsy” (priority 1992, dated 1994).
Entries after “also recorded” stand apart in the source; their conditions may differ. Where two headings read alike, the source gives them in different places.

Columns and labels:
rats [1] = assay: Vogel punished drinking test with PTZ, proconflict paradigm (anti-proconflict effect, anti-proconflict index); format: in vivo, rat; conditions: for ED50: Rattus norvegicus, iv, 0.25 h, i.v., 15 min before test, PTZ i.p., shock 0.35 mA, fiducial limits on following line; for anti-proconflict index: ratio of ED50 values anticonflict/antiproconflict; for antiproconflict index compared with reference compounds: in words, vs Bretazenil, prior art compound or diazepam
rats [2] = assay: Vogel punished drinking test, conflict paradigm (anticonflict effect); format: in vivo; conditions: Rattus norvegicus, iv, 0.25 h; i.v., 15 min before test, shock 0.8 mA; fiducial limits on following line
rats [3] = conditions: background, cited from earlier work; for potency in antagonizing conflict and proconflict responses: in words; for anti-proconflict index: Giusti et al. 1991
[4] = Duration of action at doses equipotent to Bretazenil; format: in vivo
rats [5] = conditions: background, in words; cited from earlier work
[6] = background, in words; cited from earlier work
rats [7] = assay: Development of tolerance to the anticonvulsant effect against bicuculline seizures; format: in vivo, rat; conditions: oral; for development of tolerance to anticonvulsant action: 3 times daily up to 70 days, in words
Protocol: The bicuculline seizure test (see Massotti et al., J. Pharmacol. Exp. Ther. 256: 1154-1156, 1991) consists in infusing a bicuculline solution (0.27 μmol/kg) into the rat tail vein at a constant rate (0.46 ml/min) and records the first sign of myoclonic jerk and the full myoclonic convulsion. The dose of bicuculline required to elicit these responses was taken as an index of the efficacy of diazepam and inventive compounds against seizures induced by a decrease of GABAergic tone (Massotti et al., J. Pharmacol. Exp. Ther. 256: 1154-1160, 1990). […] Possible development of tolerance to the antagonism of bicuculline convulsion was tested on various days after the beginning of the protracted treatment with the inventive compounds.

rats [8] = assay: Chemical kindling with pentylenetetrazole (PTZ), kindled seizures; format: in vivo, rat; conditions: per os; for ED50 vs kindled seizures: 30 min before PTZ 30 mg/kg i.p., n 25; for potency relative to diazepam in kindling seizure test: PTZ kindling
Protocol: Kindled seizures were induced in rats by i.p. injection of 30 mg/kg of PTZ every 2nd day for 9 weeks.

Compound | ED50 (rats [1]) | anti-proconflict index (rats [1]) | ED50 (rats [2]) | anti-proconflict index (rats [3]) | antiproconflict index compared with reference compounds (rats [1]) | potency relative to diazepam in kindling seizure test (rats [8]) | also measured
NC(=O)c1ncn2c1CN=C(c1ccccc1Cl)c1cc(Cl)ccc1-2 [8-chloro-6-(2-chlorophenyl) -4H-imidazo-[1,5-a][1,4]benzodiazepine-3-carboxamide, reference compound] | 0.45 µmol/kg | 5.0 | 2 µmol/kg | – | – | – | –
CC(C)(C)OC(=O)c1ncn2c1[C@@H]1CCCN1C(=O)c1c(Br)cccc1-2 [Bretazenil, reference compound] | 0.2 µmol/kg | 12 | 2.4 µmol/kg | ~10 | – | – | potency in antagonizing conflict and proconflict responses (rats [3]): surpassed those of the anxiolytic BZD ligands diazepam, zolpidem, alpidem, and midazolam; also recorded: significantly more potent in antagonizing the proconflict effect; duration of action ([4]; Bretazenil, equipotent dose): 0.25 to 0.75 h
CN1C(=O)CN=C(c2ccccc2)c2cc(Cl)ccc21 [Diazepam, reference compound] | 1.9 µmol/kg | 1 | 2 µmol/kg | ~1 | – | – | prevention of development of kindling seizures (rats [5]): powerful agents to prevent the development of seizures; development of tolerance in chronic maintenance therapy [6]: rapid development of tolerance; development of tolerance to anticonvulsant action (rats [7]): developed after a few days of treatment; ED50 vs kindled seizures (rats [8]): 5.7 (2.9-11.2)
NC(=O)c1ncn2c1CN=C(c1ccccc1Br)c1cc(F)ccc1-2 [Example 9, 6-(2-Bromophenyl)-8-fluoro-4H-imidazo[1,5-a][1,4]benzodiazepine-3-carboxamide] | 0.061 µmol/kg | 48 | 2.9 µmol/kg | – | antiproconflict index larger than that of Bretazenil | approximately 20 fold | days of treatment without anticonvulsant tolerance (rats [7]; 3 times daily): ≥ 70 days; development of tolerance to anticonvulsant action (rats [7]): maintained its anticonvulsant effect unabated without tolerance; ED50 vs kindled seizures (rats [8]): 0.25 (.071-0.883)
CCNC(=O)c1ncn2c1CN=C(c1ccccc1Br)c1cc(F)ccc1-2 [Example 10, 6-(2-Bromophenyl)-N-ethyl-8-fluoro-4H-imidazo[1,5-a][1,4]-benzodiazepine-3-carboxamide] | 0.079 µmol/kg | 35 | 2.8 µmol/kg | – | antiproconflict index larger than that of Bretazenil | 12 fold | –
CCCNC(=O)c1ncn2c1CN=C(c1ccccc1Br)c1cc(F)ccc1-2 [Example 11(a)] | 0.44 µmol/kg | – | 2.74 µmol/kg | – | better than diazepam | 2.2 fold | duration of action ([4]; equipotent doses to Bretazenil): 3 to 6 h
CC(C)NC(=O)c1ncn2c1CN=C(c1ccccc1Br)c1cc(F)ccc1-2 [Example 11(b), 6-(2-Bromophenyl)-8-fluoro-N-(1-methylethyl)-4-H-imidazo[1,5-a][1,4]benzodiazepine-3-carboxamide] | 0.52 µmol/kg | – | 1.72 µmol/kg | – | better than diazepam | 2.5 fold | duration of action ([4]; equipotent doses to Bretazenil): 3 to 6 h
C=CCNC(=O)c1ncn2c1CN=C(c1ccccc1Br)c1cc(F)ccc1-2 [Example 11(c), 6-(2-Bromophenyl)-8-fluoro-N-(2-propenyl)-4H-imidazo[1,5-a][1,4]benzodiazepine-3-carboxamide] | 0.18 µmol/kg | 20 | 3.6 µmol/kg | – | antiproconflict index larger than that of Bretazenil | – | –
O=C(NCC1CC1)c1ncn2c1CN=C(c1ccccc1Br)c1cc(F)ccc1-2 [Example 11(d), 6-(2-Bromophenyl)-N-[(cyclopropyl)methyl]-8-fluoro-4H-imidazo[1,5-a][1,4]benzodiazepine-3-carboxamide] | 0.43 µmol/kg | – | 3.3 µmol/kg | – | better than diazepam | 2 fold | duration of action ([4]; equipotent doses to Bretazenil): 3 to 6 h
CCCN(CCC)C(=O)Cc1c(-c2ccc(Cl)cc2)nc2ccc(Cl)cn12 [alpidem] | – | – | – | ~1 | – | – | –
Cc1nnc2n1-c1ccc(Cl)cc1C(c1ccccc1)=NC2 [alprazolam] | – | – | – | ~10 | – | – | potency in antagonizing conflict and proconflict responses (rats [3]): surpassed those of the anxiolytic BZD ligands diazepam, zolpidem, alpidem, and midazolam; also recorded: significantly more potent in antagonizing the proconflict effect
O=C1CN=C(c2ccccc2Cl)c2cc([N+](=O)[O-])ccc2N1 [clonazepam] | – | – | – | ~10 | – | – | prevention of development of kindling seizures (rats [5]): powerful agents to prevent the development of seizures; development of tolerance in chronic maintenance therapy [6]: rapid development of tolerance; potency in antagonizing conflict and proconflict responses (rats [3]): surpassed those of the anxiolytic BZD ligands diazepam, zolpidem, alpidem, and midazolam; also recorded: significantly more potent in antagonizing the proconflict effect
Cc1ncc2n1-c1ccc(Cl)cc1C(c1ccccc1F)=NC2 [midazolam] | – | – | – | ~1 | – | – | –
Cc1ccc(-c2nc3ccc(C)cn3c2CC(=O)N(C)C)cc1 [zolpidem] | – | – | – | ~1 | – | – | –
